Earlier results, collected in US20170015852A1, “INK COMPOSITION” (KERACOL LIMITED, priority 2014, published 2017).

Columns and labels:
human health = conditions: toxicological reports; approved food colorants E100, E120, E163
rats = conditions: high doses

Compound | threat to human health (human health) | solubility in ethanol | carcinogenicity (rats)
Cc1c(C(=O)O)c(O)cc2c1C(=O)c1c(O)c([C@@H]3O[C@H](CO)[C@@H](O)[C@H](O)[C@H]3O)c(O)c(O)c1C2=O [carminic acid] | pose no threat to human health |  | 
O=C1OC2(c3ccccc31)c1cc(I)c(O)c(I)c1Oc1c2cc(I)c(O)c1I [erythrosine] |  | 0.79 % w/v | cause cancer
